# According to ChEMBL document CHEMBL1201862, “PubChem BioAssay data set” (2004):
#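 Cultured in 96-well plates, cells were exposed to test compound for 48 hours across five concentrations. GI50: concentration for 50% inhibition of growth.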 The source made the active and inactive calls. No stated cut-off is given here; in the data, active = GI50 up to about 1.1 µM and inactive = higher.
# Experiments:
# Test in all cases: NCI tumour cell line growth inhibition, 48 h
# SF-268 = tested on: SF-268
# T47D = tested on: T47D
# SF-539 = tested on: SF-539
# OVCAR-5 = tested on: OVCAR-5
# SNB-19 = tested on: SNB-19
# COLO 205 = tested on: COLO 205
# OVCAR-3 = tested on: OVCAR-3
# DU-145 = tested on: DU-145
# U-251 = tested on: U-251
# ACHN = tested on: ACHN
# TK-10 = tested on: TK-10
# SK-OV-3 = tested on: SK-OV-3
# NCI-H522 = tested on: NCI-H522
# PC-3 = tested on: PC-3
# RXF 393 = tested on: RXF 393
# EKVX = tested on: EKVX
# HL-60 = tested on: HL-60
# SK-MEL-2 = tested on: SK-MEL-2
# HCT-15 = tested on: HCT-15
# OVCAR-8 = tested on: OVCAR-8
# HOP-62 = tested on: HOP-62
# UACC-62 = tested on: UACC-62
# RPMI-8226 = tested on: RPMI-8226
# SK-MEL-5 = tested on: SK-MEL-5
# Malme-3M = tested on: Malme-3M
# Hs-578T = tested on: Hs-578T
# 786-0 = tested on: 786-0
# SNB-75 = tested on: SNB-75
# SF-295 = tested on: SF-295
# NCI/ADR-RES = tested on: NCI/ADR-RES
# K562 = tested on: K562
# UACC-257 = tested on: UACC-257
# MDA-MB-435 = tested on: MDA-MB-435
# CCRF-CEM = tested on: CCRF-CEM
# M14 = tested on: M14
# CAKI-1 = tested on: CAKI-1
# A549 = tested on: A549
# LOX IMVI = tested on: LOX IMVI
# MDA-N = tested on: MDA-N
# NCI-H23 = tested on: NCI-H23
# HOP-92 = tested on: HOP-92
# IGROV-1 = tested on: IGROV-1
# UO-31 = tested on: UO-31
# MOLT-4 = tested on: MOLT-4
# SR = tested on: SR
# OVCAR-4 = tested on: OVCAR-4
# MCF7 = tested on: MCF7
# KM12 = tested on: KM12
# BT-549 = tested on: BT-549
# NCI-H226 = tested on: NCI-H226
# SW-620 = tested on: SW-620
# NCI-H460 = tested on: NCI-H460
# HT-29 = tested on: HT-29
# A498 = tested on: A498
# HCT-116 = tested on: HCT-116
# HCC 2998 = tested on: HCC 2998
# SK-MEL-28 = tested on: SK-MEL-28
# SN12C = tested on: SN12C
# MDA-MB-231 = tested on: MDA-MB-231
smiles,measurement,setting,value
O=C1NC2c3c(I)sc(I)c3C(=O)C2O1 (stereo not drawn),GI50,SF-268,6.76 µM (inactive)
same,GI50,T47D,15.9 µM (inactive)
same,GI50,SF-539,2.56 µM (inactive)
same,GI50,OVCAR-5,14.3 µM (inactive)
same,GI50,SNB-19,13.2 µM (inactive)
same,GI50,COLO 205,2.67 µM (inactive)
same,GI50,OVCAR-3,3.31 µM (inactive)
same,GI50,DU-145,14 µM (inactive)
same,GI50,U-251,6.78 µM (inactive)
same,GI50,ACHN,3.05 µM (inactive)
same,GI50,TK-10,10.9 µM (inactive)
same,GI50,SK-OV-3,17.3 µM (inactive)
same,GI50,NCI-H522,1.56 µM (inactive)
same,GI50,PC-3,6.9 µM (inactive)
same,GI50,RXF 393,5.56 µM (inactive)
same,GI50,EKVX,5.52 µM (inactive)
same,GI50,HL-60,1.09 µM (active)
same,GI50,SK-MEL-2,10.4 µM (inactive)
same,GI50,HCT-15,2.08 µM
same,GI50,OVCAR-8,2.84 µM (inactive)
same,GI50,HOP-62,14.1 µM (inactive)
same,GI50,UACC-62,8.99 µM (inactive)
same,GI50,RPMI-8226,8.15 µM (inactive)
same,GI50,SK-MEL-5,2.46 µM (inactive)
same,GI50,Malme-3M,2.23 µM (inactive)
same,GI50,Hs-578T,13.5 µM (inactive)
same,GI50,786-0,7.13 µM (inactive)
same,GI50,SNB-75,13.1 µM (inactive)
same,GI50,SF-295,15.8 µM (inactive)
same,GI50,NCI/ADR-RES,6.84 µM (inactive)
same,GI50,K562,4.65 µM (inactive)
same,GI50,UACC-257,4.97 µM (inactive)
same,GI50,MDA-MB-435,4.45 µM (inactive)
same,GI50,CCRF-CEM,1.56 µM (inactive)
same,GI50,M14,2.07 µM (inactive)
same,GI50,CAKI-1,3.52 µM (inactive)
same,GI50,A549,14.1 µM (inactive)
same,GI50,LOX IMVI,2.16 µM (inactive)
same,GI50,MDA-N,2.96 µM (inactive)
same,GI50,NCI-H23,5.27 µM (inactive)
same,GI50,HOP-92,3.38 µM (inactive)
same,GI50,IGROV-1,2.93 µM (inactive)
same,GI50,UO-31,3.82 µM (inactive)
same,GI50,MOLT-4,3.58 µM (inactive)
same,GI50,SR,2.96 µM (inactive)
same,GI50,OVCAR-4,9.35 µM (inactive)
same,GI50,MCF7,4.58 µM (inactive)
same,GI50,KM12,11.6 µM (inactive)
same,GI50,BT-549,5.53 µM (inactive)
same,GI50,NCI-H226,5.55 µM (inactive)
same,GI50,SW-620,2.82 µM (inactive)
same,GI50,NCI-H460,13.9 µM (inactive)
same,GI50,HT-29,1.7 µM (inactive)
same,GI50,A498,14.3 µM (inactive)
same,GI50,HCT-116,2.58 µM (inactive)
same,GI50,HCC 2998,3.95 µM (inactive)
same,GI50,SK-MEL-28,7.41 µM (inactive)
same,GI50,SN12C,4.27 µM (inactive)
same,GI50,MDA-MB-231,4.49 µM (inactive)
CSc1nc(C)cc(Nc2ccc(O)c(CN3CCOCC3)c2)n1,GI50,SF-268,> 100 µM (inactive)
same,GI50,T47D,71.9 µM (inactive)
same,GI50,SF-539,> 100 µM (inactive)
same,GI50,OVCAR-5,> 100 µM (inactive)
same,GI50,SNB-19,> 100 µM (inactive)
same,GI50,COLO 205,> 100 µM (inactive)
same,GI50,OVCAR-3,> 100 µM (inactive)
same,GI50,DU-145,> 100 µM (inactive)
same,GI50,U-251,> 100 µM (inactive)
same,GI50,ACHN,> 100 µM (inactive)
same,GI50,TK-10,> 100 µM (inactive)
same,GI50,SK-OV-3,> 100 µM (inactive)
same,GI50,NCI-H522,> 100 µM (inactive)
same,GI50,PC-3,> 100 µM (inactive)
same,GI50,RXF 393,> 100 µM (inactive)
same,GI50,EKVX,83 µM (inactive)
same,GI50,HL-60,> 100 µM (inactive)
same,GI50,SK-MEL-2,> 100 µM (inactive)
same,GI50,HCT-15,> 100 µM
same,GI50,OVCAR-8,> 100 µM (inactive)
same,GI50,HOP-62,> 100 µM (inactive)
same,GI50,UACC-62,> 100 µM (inactive)
same,GI50,RPMI-8226,> 100 µM (inactive)
same,GI50,SK-MEL-5,65 µM (inactive)
same,GI50,Malme-3M,> 100 µM (inactive)
same,GI50,Hs-578T,> 100 µM (inactive)
same,GI50,786-0,> 100 µM (inactive)
same,GI50,SNB-75,> 100 µM (inactive)
same,GI50,SF-295,> 100 µM (inactive)
same,GI50,NCI/ADR-RES,> 100 µM (inactive)
same,GI50,K562,> 100 µM (inactive)
same,GI50,UACC-257,> 100 µM (inactive)
same,GI50,MDA-MB-435,> 100 µM (inactive)
same,GI50,CCRF-CEM,> 100 µM (inactive)
same,GI50,M14,> 100 µM (inactive)
same,GI50,CAKI-1,> 100 µM (inactive)
same,GI50,A549,> 100 µM (inactive)
same,GI50,LOX IMVI,> 100 µM (inactive)
same,GI50,MDA-N,> 100 µM (inactive)
same,GI50,NCI-H23,> 100 µM (inactive)
same,GI50,HOP-92,62.8 µM (inactive)
same,GI50,IGROV-1,> 100 µM (inactive)
same,GI50,UO-31,71 µM (inactive)
same,GI50,MOLT-4,53.6 µM (inactive)
same,GI50,SR,> 100 µM (inactive)
same,GI50,OVCAR-4,> 100 µM (inactive)
same,GI50,MCF7,> 100 µM (inactive)
same,GI50,KM12,> 100 µM (inactive)
same,GI50,BT-549,> 100 µM (inactive)
same,GI50,NCI-H226,> 100 µM (inactive)
same,GI50,SW-620,> 100 µM (inactive)
same,GI50,NCI-H460,> 100 µM (inactive)
same,GI50,HT-29,76.9 µM (inactive)
same,GI50,A498,> 100 µM (inactive)
same,GI50,HCT-116,> 100 µM (inactive)
same,GI50,HCC 2998,> 100 µM (inactive)
same,GI50,SK-MEL-28,> 100 µM (inactive)
same,GI50,SN12C,> 100 µM (inactive)
same,GI50,MDA-MB-231,> 100 µM (inactive)
